ChEMBL document CHEMBL4765400, “Open and rearranged norbornane derived polycyclic cage molecules as potential neuroprotective agents through attenuation of MPP- and calcium overload-induced excitotoxicity in neuroblastoma SH-SY5Y cells” (Eur J Med Chem, 2020)
Activity calls are given as the source filed them. The rule behind the calls is not given here.

What was measured:
[1] = Cytotoxicity against human SH-SY5Y cells assessed as cell viability at 10 uM incubated for 24 hrs by MTT assay relative to control; type: cell-based; conditions: read-out: Activity
SH-SY5Y [2] = assay: Antagonist activity at NMDA receptor in human SH-SY5Y cells assessed as inhibition of calcium influx at 10 uM by Fura-2AM dye based fluorescence analysis relative to control; type: cell-based
SH-SY5Y [3] = assay: Blockade of VGCC in human SH-SY5Y cells assessed as inhibition of membrane depolarisation-induced calcium influx at 10 uM by Fura-2AM dye based fluorescence analysis relative to control; type: cell-based
SH-SY5Y [4] = assay: Cytotoxicity against human SH-SY5Y cells assessed as reduction in cell viability at 10 to 100 uM incubated for 24 hrs by MTT assay; type: cell-based; conditions: dose 10-100 µM
SH-SY5Y [5] = assay: Neuroprotective activity against MPP+-induced neurotoxicity in human SH-SY5Y cells assessed as cell viability at 10 uM pretreated for 2 hrs followed by MPP+ challenge and measured after 24 hrs by MTT assay relative to control; type: functional; conditions: time 26 hrs, read-out: Activity
[6] = Displacement of [3H]MK801 from NMDA receptor (unknown origin) by radioligand binding assay; set-up: species or system Homo sapiens
[7] = Displacement of [3H]MK801 from NMDA receptor in human brain by radioligand binding assay; type: tissue-based
[8] = Displacement of [3H]MK801 from NMDA receptor in Sprague-Dawley rat cerebral cortical membrane incubated for 60 mins by liquid scintillation counting analysis; type: cell membranes, Cerebral cortex
[9] = Cytotoxicity against human SH-SY5Y cells assessed as cell viability at 100 uM incubated for 24 hrs by MTT assay relative to control; type: cell-based; conditions: read-out: Activity
[10] = Antagonist activity at NMDA receptor (unknown origin); set-up: species or system Homo sapiens

| Compound | viability at 24 h, 10 µM [1] [%] | inhibition (SH-SY5Y [2]; filed as antagonist) [%] | inhibition (SH-SY5Y [3]) | Activity (SH-SY5Y [4]) | viability at 10 µM (SH-SY5Y [5]) [%] | further results |
| --- | --- | --- | --- | --- | --- | --- |
| O=C1C=C[C@H](NN2CCCCC2)[C@@H]2[C@H]1[C@H]1C=C[C@@H]2C1 | 93.7 | 65.3 | 8.4% | Non-Toxic | 33.9 |  |
| c1ccc(C2(N3CCCCC3)CCCCC2)cc1 [PHENCYCLIDINE] |  |  |  |  |  | Ki [6]: 59 nM |
| CC12CC3CC(C)(C1)CC(N)(C3)C2 [MEMANTINE] |  |  |  |  |  | Ki [7]: 540 nM |
| C1C2OC2[C@H]2[C@@H]1[C@H]1C[C@@H]2C2OC21 (stereo not given in full) | 94.4 | 53.3 | 8.49% | Toxic | 27.9 |  |
| CN[C@@]1(c2ccccc2Cl)CCCCC1=O |  |  |  |  |  | Ki [6]: 659 nM |
| O=C1C=C[C@H](NCc2ccccc2)[C@@H]2[C@H]1[C@H]1C=C[C@@H]2C1 | 108 |  | 21.3% | Toxic | 33.7 | inhibition (SH-SY5Y [2]): 26.5% |
| C[C@@]12N[C@@H](Cc3ccccc31)c1ccccc12 |  | 47.5 | inactive |  |  | Ki [8]: 37.2 nM |
| O=C1CC[C@H]2C[C@@H]1CCC2=O | 125 | 73 | inactive | Non-Toxic | 26.1 |  |
| C1=C[C@H]2CC[C@@H]1[C@H]1CNC[C@H]12 | 108 | 55.5 | 5.79% | Non-Toxic | 27.5 |  |
| O=C1CCC(=O)[C@H]2[C@@H]1[C@H]1C=C[C@H]2C1 | 96.6 | 51 | 25.4% | Toxic | 40.6 |  |
| O=C1CC[C@H](O)C2C3C=C[C@@H](C3)C12 (single isomer, unassigned) | 96.3 | 69.7 | 32.8% | Non-Toxic | 35 |  |
| O[C@@H]1C[C@H]2CC[C@@H]1NC2 | 96.3 | 43.5 | inactive | Toxic | 28.3 | viability at 24 h, 100 µM [9]: 59% |
| COCCOC(=O)C1=C(C)NC(C)=C(C(=O)OC(C)C)C1c1cccc([N+](=O)[O-])c1 (stereo not given) |  |  | 34.1% |  |  | inhibition (SH-SY5Y [2]): inactive |
| O=C1C=CC(=O)[C@H]2[C@@H]1[C@H]1C=C[C@H]2C1 | 97.7 | 43.8 | 15% | Toxic | 32.8 |  |
| O=C1C2C3C=CC(C3)C2C(=O)C2C3C=CC(C3)C12 (stereo not given) | 95.9 | 62.3 | 50.3% | Non-Toxic | 41.4 |  |
| NC12CC3CC(CC(C3)C1)C2 [AMANTADINE] |  |  |  |  |  | Ki [10]: 10000 nM |
